Assays:
NCI-H520 = assay: Cytotoxicity assay (MTS, Celltiter 96) in NCI-H520; type: cell-based, human; settings: mean of duplicate experiments ± SD
Experimental: (§1) After successful synthesis and purification of P1-A1, P1-B1, and P1-B2 was completed, each drug was tested for its cell-kill ability in five non-small-cell lung cancer cell lines (Table 2).
(§2) ^aConcentration of compound that reduces cell viability by 50%, determined at 72 h of drug incubation using the MTS (3-(4,5-dimethylthiazol-2-yl)-5-(3-carboxymethoxyphenyl)-2-(4-sulfophenyl)-2H-tetrazolium) assay. Values are means of duplicate experiments±the standard deviation. ^bCompound not tested in this cell line.
(§3) The human non-small cell lung cancer cell lines, NCI-H460 (large cell), NCI-H520 (squamous cell), NCI-H522, NCI-H1435 and A549 (adenocarcinomas) were obtained from the American Type Culture Collection (Rockville, Md., USA). NCI-H460, NCI-H520 and NCI-H522 cells were cultured in RPMI-1640 media (HyClone) supplemented with 10% fetal bovine serum (FBS), […] (P&S), […], and 1.5 g/L NaHCO3. A549 cells were cultured in HAM's F12K media (Gibco) with the same additives as above. NCI-H1435 cells were cultured in serum-free 1:1 DMEM/F12 media (Gibco) containing 2.436 g/L NaHCO3, 0.02 mg/mL insulin, 0.01 mg/mL transferrin, 25 nM sodium selenite, 50 nM hydrocortisone, 1 ng/mL epidermal growth factor, 0.01 mM ethanolamine, 0.01 mM phosphorylethanolamine, 100 pM triiodothyronine, 0.5% (w/v) bovine serum albumin (BSA), 10 mM HEPES, 0.5 mM sodium pyruvate, and an extra 2 mM L-glutamine (final concentration 4.5 mM). Cells were incubated at a constant temperature at 37° C. in a humidified atmosphere containing 5% CO2 and were subcultured every 2 to 3 days in order to maintain cells in logarithmic growth, except for NCI-H1435 which was subcultured every 7 days.
(§4) The cytotoxicity studies were carried out according to a standard protocol using the Celltiter 96 aqueous nonradioactive cell proliferation assay kit (Promega, Madison, Wis.). Stock solutions (10 mM) of all drugs were made in DMF, except for P1-B2 which was made in DMSO, and serially diluted with media prior to incubation with cancer cells. IC50 values were calculated from nonlinear curve fits using a sigmoidal dose-response equation in GraphPad Prism (GraphPad Software, La Jolla, Calif.).

NCI-H460 = assay: Cytotoxicity assay (MTS, Celltiter 96) in NCI-H460; type: cell-based, human; settings: for IC50: 72 h drug incubation, MTS assay, mean of duplicate experiments ± SD
Experimental: as §1, §2, §3, §4

NCI-H522 = assay: Cytotoxicity assay (MTS, Celltiter 96) in NCI-H522; type: cell-based, human; settings: 72 h drug incubation, mean of duplicate experiments ± SD
Experimental: as §1, §2, §3
as §4, with “Stock solutions (10 mM) of all drugs were made in DMF, except for P1-B2 which was made in DMSO, and serially diluted with media prior to incubation with cancer cells.” left out

NCI-H1435 = assay: Cytotoxicity assay (MTS, Celltiter 96) in NCI-H1435; type: cell-based, human; settings: 72 h drug incubation, mean of duplicate experiments ± SD
Experimental: as §1, §2, §3
as §4, with “Stock solutions (10 mM) of all drugs were made in DMF, except for P1-B2 which was made in DMSO, and serially diluted with media prior to incubation with cancer cells.” left out

A549 = assay: Cytotoxicity assay (MTS, Celltiter 96) in A549; type: cell-based, human; settings: 72 h drug incubation, mean of duplicate experiments ± SD
Experimental: as §1, §2, §3
as §4, with “Stock solutions (10 mM) of all drugs were made in DMF, except for P1-B2 which was made in DMSO, and serially diluted with media prior to incubation with cancer cells.” left out

G-quadruplex DNA = G-quadruplex DNA recognition and platination; type: binding; settings: for Selective recognition of G-quadruplex DNA: displayed by induced circular dichroism (ICD)
[1] = Spectrophotometric determination of pKa values for platinum complexes; type: physicochemical; settings: spectrophotometric titration at 25° C.; numeric values only in Chart 3 drawing
Experimental: The pKa values of P1-A1, P1-B1 and P1-B2 were determined spectrophotometrically using a Hewlett Packard 8354 spectrophotometer equipped with a Peltier temperature control and a cell stirring module. Titrations were carried out at 25° C. in the pH range 2-11 with a micro combination electrode placed inside the cuvette. Solutions of P1-A1 (˜100 μM), P1-B1 (˜100 μM), and P1-B2 (˜50 μM) in 0.1 M HCl/100 mM NaCl were titrated with aliquots of 0.4 M, 0.04M, and 0.004M KOH, and UV-Vis spectra were recorded after a 2 min equilibration time. The protonation state of the chromophores was deduced from spectral changes around isosbestic points. The pKa values were determined graphically from plots of pH vs. log[k(Aacr/AacrH+)], where k=εacrH+/εacr using suitable absorbance maxima. The pKa values of P1-A1 and P1-B1 were determined at the y-intercept of the plot. […] Reported pKa values are means of three measurements+/−the standard deviation.

RNA from NCI-H460 cells = assay: Platinum content associated with RNA in NCI-H460 cells (ICP-MS); type: cell-based, human; settings: 1 μM drug, 3 h, p<0.05
Experimental: (§5) To determine the platinum content of nucleic acid material, DNA and RNA was extracted and purified from cells using the Qiagen AllPrep DNA/RNA Mini Kit (Qiagen, Alameda, Calif., USA). 1.5×10^6 exponentially-growing NCI-H460 cells were seeded into 60-mm cell culture dishes with 2 mL of media and were allowed to attach for 24 hours. Cells were incubated in the presence of 1 μM P1-A1 or P1-B1 at 37° C. for various time intervals. Incubations were performed in triplicate for each incubation condition/time point. To quench the incubations, cells were washed three times in cold PBS. The cells were harvested via trypsinization and removed from the dishes with successive washes of cold PBS. Cell suspensions were centrifuged at 1500 rpm for 5min at 4° C. The cell pellet was re-suspended in 5 mL of cold PBS and centrifuged at 1500 rpm for 5 min at 4° C. The supernatant was removed and the DNA/RNA was extracted from the pellet according to the protocol provided by the manufacturer. The concentration and purity of each sample was determined spectrophotometrically (triplicate readings at 260 and 280 nm).
(§6) Platinum content was determined by ICP-MS.

DNA from NCI-H460 cells = assay: Platinum content associated with DNA in NCI-H460 cells (ICP-MS); type: cell-based, human; settings: 1 μM drug, both time points, p>0.05
Experimental: as §5, §6

[2] = tested on: non-small-cell lung cancer cell lines; assay: Cytotoxicity across NSCLC lines (summary statements); type: cell-based, human
Experimental: as §1
When observing the structure-activity relationship of the platinum hybrid agents, it is important to note the increased cytotoxicity upon addition of the platinum module.
The human non-small cell lung cancer cell lines, NCI-H460 (large cell), NCI-H520 (squamous cell), NCI-H522, NCI-H1435 and A549 (adenocarcinomas) were obtained from the American Type Culture Collection (Rockville, Md., USA). NCI-H460, NCI-H520 and NCI-H522 cells were cultured in RPMI-1640 media (HyClone) supplemented with 10% fetal bovine serum (FBS), […] (P&S), […], and 1.5 g/L NaHCO3. A549 cells were cultured in HAM's F12K media (Gibco) with the same additives as above. […]
as §4, with “Stock solutions (10 mM) of all drugs were made in DMF, except for P1-B2 which was made in DMSO, and serially diluted with media prior to incubation with cancer cells.” left out

[3] = Homo sapiens, NCI-H520, 72 h drug incubation

CNCCNc1c2ccccc2nc2c1ccc1ccccc12 [Compound B1, N1-(benzo[c]acridin-7-yl)-N2-methylethane-1,2-diamine]
IC50 (NCI-H520; [3]): 1.8 ± 0.1 µM | IC50 (NCI-H460; Homo sapiens, NCI-H460): 0.9 ± 0.1 µM | IC50 value (in words) (NCI-H460; NCI-H460 cells, 72 h incubation, chromophore module alone): sub-micromolar range

CNCCNc1c2cc([N+](=O)[O-])ccc2nc2c1ccc1ccccc12 [Compound B2, N1-methyl-N2-(9-nitrobenzo[c]acridin-7-yl)ethane-1,2-diamine]
IC50 (NCI-H520; [3]): 3.35 ± 0.08 µM | IC50 (NCI-H460; Homo sapiens, NCI-H460): 2.08 ± 0.04 µM

[Pt(Cl)(NH3)2(N-(2-(acridin-9-ylamino)ethyl)-N-methylpropionimidamide)] Cl [Compound P1-A1, reference compound]
IC50 (NCI-H522): 0.01 ± 0.0007 µM | IC50 (NCI-H520; 72 h drug incubation): 0.043 ± 0.004 µM | IC50 (NCI-H1435): 0.84 ± 0.07 µM | IC50 (NCI-H460): 0.0052 ± 6e-05 µM | IC50 (A549): 0.0065 ± 0.0002 µM | Selective recognition of G-quadruplex DNA (G-quadruplex DNA): not previously displayed | pKa (rank among the three Pt-chromophore hybrid agents) [1]: highest

[Pt(Cl)(NH3)2(N-(2-(benzo[c]acridin-7-ylamino)ethyl)-N-methylpropionimidamide)] Cl [Compound P1-B1]
IC50 (NCI-H522): 0.12 ± 0.02 µM | platinum level observed in the RNA of treated cells (RNA from NCI-H460 cells): statistically significant | IC50 (NCI-H520; 72 h drug incubation): 0.516 ± 0.009 µM | platinum level observed in the DNA of treated cells vs control cells (DNA from NCI-H460 cells): not statistically significant | IC50 (NCI-H1435): 1.479 ± 0.009 µM | IC50 (NCI-H460): 0.24 ± 0.01 µM | IC50 (A549): 0.32 ± 0.06 µM | folding and irreversible platination of G-quadruplex DNA (G-quadruplex DNA): ability to fold and irreversibly platinate G-quadruplex DNA | Selective recognition of G-quadruplex DNA (G-quadruplex DNA): Selective recognition of G-quadruplex DNA | cytotoxicity (in words) ([2]; 72 hour incubations, extremely aggressive NSCLC models): nanomolar cytotoxicity | IC50 ([2]; NSCLC lines tested except NCI-H1435): 100 to 500 nM

[Pt(Cl)(NH3)2(N-methyl-N-(2-((9-nitrobenzo[c]acridin-7-yl)amino)ethyl)propionimidamide)] Cl •1/3 DMF [Compound P1-B2]
IC50 (NCI-H522): 3.62 ± 0.08 µM | IC50 (NCI-H520; 72 h drug incubation): 2.2 ± 0.1 µM | IC50 (NCI-H1435): 11 ± 0.2 µM | IC50 (NCI-H460): 2.4 ± 0.5 µM | IC50 (A549): 12.4 ± 0.9 µM | folding and irreversible platination of G-quadruplex DNA (G-quadruplex DNA): ability to fold and irreversibly platinate G-quadruplex DNA | Selective recognition of G-quadruplex DNA (G-quadruplex DNA): Selective recognition of G-quadruplex DNA | pKa (rank among the three Pt-chromophore hybrid agents) [1]: lowest
